Results reported in patent publication US20230416266A1, “6,7-DIHYDRO-PYRANO[2,3-d]PYRIMIDINE INHIBITORS OF KRAS G12C MUTANT” (Merck Sharp & Dohme Corp., priority 2020, published 2023).
Read-outs that look alike come from different tables or passages of the source.

Legend:
[1] = target: T1, Biotinylated KRAS G12C protein (KRAS G12C/C51S/C80L/C118S, SEQ ID NO: 1) (Homo sapiens, UniProt P01116, C118S/C51S/C80L/G12C); assay: SOS-catalyzed nucleotide exchange assay (TR-FRET); format: biochemical; conditions: in vitro apparent potency; preincubation time of 60 minutes prior to addition of SOS
T1 construct: 183 amino acids; biotin on K10
Method: The SOS-catalyzed nucleotide exchange assay utilizes a preformed complex of recombinant biotinylated KRAS protein containing G12C/C51S/C80L/C118S mutations (183 amino acids; biotin on K10; leader sequence which is an AviTag; referred to as SEQ ID NO: 1 or “Biotinylated KRAS G12C protein” hereafter), Bodipy-GDP, and Terbium-streptavidin. Compounds are added to this complex and then after 60 minutes, the mixture is treated with recombinant SOS protein and unlabeled GTP. Small molecule inhibitors stabilize the Bodipy-GDP complex whereas the untreated protein rapidly exchanges Bodipy-GDP for unlabeled GTP resulting in reduced TR-FRET signal.
Biotinylated KRAS G12C protein (SEQ ID NO: 1) is diluted to 2 μM in an EDTA buffer (20 mM HEPES, 150 mM sodium chloride, 10 mM EDTA, and 0.01% Tween) and incubated at room temperature for one hour. This mixture is then further diluted to 90nM in an assay buffer (20 mM HEPES, 150 mM sodium chloride, 10 mM magnesium chloride, and 0.005% Tween) containing 15 nM of Terbium-Streptavidin (Invitrogen, catalog #PV3577) and 900 nM of Bodipy-GDP and incubated at room temperature for six hours. This solution is referred to as Biotinylated KRAS G12C mixture.
Each test compound (10 mM stock in DMSO) is diluted in DMSO to make a 10-point, 3-fold dilution series in a 384-well low dead volume microplate (Labcyte, catalog #LP-0200). Once titrations are made, 10 nL of the diluted compounds is acoustically dispensed into a 384-well plate (Corning, catalog #3820) using an Echo 550 (Labcyte).
Each well of the plate receives 3 μL Biotinylated KRAS G12C mixture that had been incubating for six hours and 3 μL of assay buffer using a BioRAPTR (Beckman Coulter) and is incubated at room temperature for 60 minutes. Each well then receives 3 μL of 240 nM recombinant human SOS protein and 9 mM GTP (Sigma, G8877) in assay buffer and is incubated at room temperature for 60 minutes.
The time-resolved fluorescence resonance energy transfer signal of the plate is measured on an Envision (PerkinElmer) plate reader: Excitation filter=340 nm; emission1=495 nm; emission2=520 nm; dichroic mirror=D400/D505; delay time=100 μs. The signal of each well is determined as the ratio of the emission at 520 nm to that at 495 nm. Percent effect of each well is determined after normalization to control wells containing DMSO (no effect) or a saturating concentration of inhibitor (max effect). The apparent effect as a function of compound concentration is fit to a four parameter logistic equation.

[2] = system: phosphorylation of Erk in NCI-H358 cells; assay: Cellular phospho-ERK assay; format: cell-based; conditions: 2 hour incubation, ratio of p-Erk vs total Erk, read-out: IC50 (nM) pERK (Cell)
Method: NCI-H358 cells (ATCC® CRL-5807™) were cultured in T150 flask in growth medium (RPMI medium 1640-GlutaMAX™-I (ThermoFisher Scientific 61870) containing 10% fetal bovine serum (ThermoFisher Scientific 10091148)). The cells were harvested in growth medium after TrypLE (ThermoFisher scientific 12604021) digestion and were seeded in 384-well collagen coated cell culture plate (Corning 356702) at a density of 15,000 cells/well, and incubated at 37° C., 5% CO2 overnight. The compound dose-response titrations were prepared and appropriate amounts of compounds were dispensed in a 384-well intermediate plate using an Echo 550 liquid handler. RPMI medium 1640-GluiaMAX™-I were added to the intermediate plate and transferred to 384-well cell culture plate, which was incubated at 37° C., 5% CO2 for 2 hours. After removal of medium from the plate, cells were lysed in lysis buffer from Alpha SureFire® Ultra™ Multiplex p-Erk and total Erk assay kit (PerkinElmer MPSU-PIERK) containing Halt™ Protease and Phosphotase inhibitor cocktail (ThermoFisher Scientific 78446) at room temperature with constant shaking at 300 rpm for 30 minutes. The cell lysates were then transferred to OptiPlate-384 plate (PerkinElmer 6005620) and the phosphorylation of Erk and total Erk levels were detected by Alpha SureFire Ultra Multiplex p-Erk kit (PerkinElmer MPSU-PIERK) following the manufacturer's protocol. Assay plates were read on an EnVision Multimode Plate Reader (PerkinElmer), and the ratio of p-Erk vs total Erk in each well was used as the final readout. Dose response curves were analyzed using a 4-parameter logistic model to calculate IC50 values using spotfire software.

T1 sequence (P01116 with tags, fused parts or gaps isoform P01116-2 G12C/C51S/C80L/C118S): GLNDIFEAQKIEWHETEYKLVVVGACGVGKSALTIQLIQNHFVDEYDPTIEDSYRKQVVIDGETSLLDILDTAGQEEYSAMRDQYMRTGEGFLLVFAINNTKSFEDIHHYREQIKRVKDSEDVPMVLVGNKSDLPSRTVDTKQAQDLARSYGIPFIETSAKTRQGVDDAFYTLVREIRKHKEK

| IC50 [1] [nM] | IC50 [2] [nM] | IC50 ([2]; Homo sapiens, NCI-H358, 2 h) [nM] | SMILES |
| --- | --- | --- | --- |
| 12.9 | 704 | – | C=CC(=O)N1CCN(c2nc(OC[C@@H]3CCCN3C)nc3c2CC(C)C(c2cccc4ccccc24)O3)C[C@@H]1CC#N (single isomer, unassigned) [Compound 10a] |
| 817 | – | 26200 | C=CC(=O)N1CCN(c2nc(OC[C@@H]3CCCN3C)nc3c2CCC(c2cccc4cc(O)ccc24)O3)C[C@@H]1CC#N (single isomer, unassigned) [Compound 8a] |
| 2130 | 21300 | – | C=CC(=O)N1CCN(c2nc(OC[C@@H]3CCCN3C)nc3c2CC(C)C(c2cccc4ccccc24)O3)C[C@@H]1CC#N (single isomer, unassigned) [Compound 9b] |
| 259 | 13200 | – | C=CC(=O)N1CCN(c2nc(OC[C@@H]3CCCN3C)nc3c2CC(C)C(c2cccc4ccccc24)O3)C[C@@H]1CC#N (single isomer, unassigned) [Compound 9a] |
| 153 | 5230 | – | C=CC(=O)N1CCN(c2nc(OC[C@@H]3CCCN3C)nc3c2CC(C)C(c2cccc4ccccc24)O3)C[C@@H]1CC#N (single isomer, unassigned) [Compound 10b] |

Continued, compound first:

| SMILES | IC50 [1] [nM] | IC50 [2] [nM] | IC50 ([2]; Homo sapiens, NCI-H358, 2 h) [nM] |
| --- | --- | --- | --- |
| C=CC(=O)N1CCN(c2nc(OC[C@@H]3CCCN3C)nc3c2CC(F)(F)C(c2cccc4ccccc24)O3)C[C@@H]1CC#N (single isomer, unassigned) [Compound 7a] | 13.8 | 394 | – |
| C=CC(=O)N1CCN(c2nc(OC[C@@H]3CCCN3C)nc3c2CCC(c2c(O)cccc2F)O3)C[C@@H]1CC#N (mixture of isomers) [Compound 3, 2-((2S)-1-acryloyl-4-(7-(2-fluoro-6-hydroxyphenyl)-2-(((S)-1-methylpyrrolidin-2-yl)methoxy)-6,7-dihydro-5H-pyrano[2,3-d]pyrimidin-4-yl)piperazin-2-yl)acetonitrile] | 793 | – | 15700 |
| C=CC(=O)N1CCN(c2nc(OC[C@@H]3CCCN3C)nc3c2CC(F)(F)C(c2cccc4ccccc24)O3)C[C@@H]1CC#N (single isomer, unassigned) [Compound 7b] | 84.8 | 2380 | – |
| C=CC(=O)N1CCN(c2nc(OC[C@@H]3CCCN3C)nc3c2CCC(c2cccc4cccc(C)c24)O3)C[C@@H]1CC#N (mixture of isomers) [Compound 2, 2-((2S)-1-acryloyl-4-(7-(8-methylnaphthalen-1-yl)-2-(((S)-1-methylpyrrolidin-2-yl)methoxy)-6,7-dihydro-5H-pyrano[2,3-d]pyrimidin-4-yl)piperazin-2-yl)acetonitrile] | 17.5 | – | 501 |
| C=CC(=O)N1CCN(c2nc(OC[C@@H]3CCCN3C)nc3c2CCC(C)(c2cccc4ccccc24)O3)C[C@@H]1CC#N (stereo partly drawn) [Compound 6, 2-((2S)-1-acryloyl-4-(7-methyl-2-(((S)-1-methylpyrrolidin-2-yl)methoxy)-7-(naphthalen-1-yl)-6,7-dihydro-5H-pyrano[2,3-d]pyrimidin-4-yl)piperazin-2-yl)acetonitrile] | 632 | – | 24100 |
| C=CC(=O)N1CCN(c2nc(OC[C@@H]3CCCN3C)nc3c2CCC(c2cccc4ccccc24)O3)C[C@@H]1CC#N (single isomer, unassigned) [Compound 1b] | 395 | 9020 | – |
| C=CC(=O)N1CCN(c2nc(OC[C@@H]3CCCN3C)nc3c2CCC(c2cccc4ccc5[nH]ncc5c24)O3)C[C@@H]1CC#N (mixture of isomers) [Compound 12, 2-((2S)-4-(7-(3H-benzo[e]indazol-9-yl)-2-(((S)-1-methylpyrrolidin-2-yl)methoxy)-6,7-dihydro-5H-pyrano[2,3-d]pyrimidin-4-yl)-1-acryloylpiperazin-2-yl)acetonitrile] | 87.1 | – | 18500 |
| C=CC(=O)N1CCN(c2nc(OC[C@@H]3CCCN3C)nc3c2CCC(c2cccc4ccccc24)O3)C[C@@H]1CC#N (single isomer, unassigned) [Compound 1a] | 11.4 | 578 | – |
| C=CC(=O)N1CCN(c2nc(OC[C@@H]3CCCN3C)nc3c2CCC(c2c(Cl)c(C)cc4[nH]ncc24)O3)C[C@@H]1CC#N (single isomer, unassigned) [Compound 4b] | 2690 | 30000 | – |
| C=CC(=O)N1CCN(c2nc(OC[C@@H]3CCCN3C)nc3c2CCC(c2cccc4c(F)cccc24)O3)C[C@@H]1CC#N (single isomer, unassigned) [Compound 5b] | 195 | 10300 | – |
| C=CC(=O)N1CCN(c2nc(OC[C@@H]3CCCN3C)nc3c2CCC(c2cccc4c(F)cccc24)O3)C[C@@H]1CC#N (single isomer, unassigned) [Compound 5a] | 88.6 | – | 6350 |
| C=CC(=O)N1CCN(c2nc(C(=O)N[C@H](C)CN(C)C)nc3c2CCC(c2cccc4ccccc24)O3)C[C@@H]1CC#N (mixture of isomers) [Compound 11, 4-((S)-4-Acryloyl-3-(cyanomethyl)piperazin-1-yl)-N-((R)-1-(dimethylamino)propan-2-yl)-7-(naphthalen-1-yl)-6,7-dihydro-5H-pyrano[2,3-d]pyrimidine-2-carboxamide] | 1410 | – | 21700 |
| C=CC(=O)N1CCN(c2nc(OC[C@@H]3CCCN3C)nc3c2CCC(c2c(Cl)c(C)cc4[nH]ncc24)O3)C[C@@H]1CC#N (single isomer, unassigned) [Compound 4a] | 104 | – | 19200 |
